# Assay results published in publication PMC11280390, “Synthesis of Nitrostyrylthiazolidine-2,4-dione Derivatives Displaying Antileishmanial Potential” (Pharmaceuticals, 2024).
# Like-named read-outs stand apart in the source and are kept apart here.
# Assays:
# [1] = In vitro cytotoxicity on the human monocyte THP-1 cell line (MTT, 72 h); assay type: cell-based; details: human; THP-1, 72 h, MTT
# Method: The undifferentiated THP1 human monocyte cells (acute monocytic leukemia cell line purchased from ATCC, ref TIB-202) were routinely grown in RPMI 1640 medium (Life Technologies, Saint-Aubin, France) supplemented with 10% FCS (Life Technologies, Saint-Aubin, France), 100 U/mL penicillin, 100 µg/mL streptomycin and 2 mM L-glutamine at 37 °C, 5% CO2. The culture was maintained between 3.10^5 and 8.10^5 cells/mL. […] Wells were washed with RPMI and 100 µL of fresh complete medium was added. […] Then, 100 µL of MTT solution (0.5 mg/mL in medium) was added to each well. Cells were incubated for 2 h at 37 °C. […] Plates were shaken vigorously (700 rpm) for 10 min. […] (Palo Alto, CA, USA).
# [2] = system: Leishmania infantum promastigotes; assay: In vitro antileishmanial activity on L. infantum promastigotes (MTT, 72 h); assay type: cell-based; details: Leishmania infantum, read-out: Anti-L. infantum Promastigote Activity EC50
# Method: Luciferase-expressing Leishmania infantum was kindly provided by Professor Thierry Lang of the Institut Pasteur. L. infantum promastigotes were routinely grown at 27 °C in Schneider’s Drosophila Medium (Dominique […] SAS, Bernolsheim, France) supplemented with 10% fetal calf serum, 2% human urine, sodium pyruvate 0.04 mM, hemin 0.1 µg/mL, HEPES 5 mM, streptomycin 100 µg/mL, penicillin 100 U/mL, L-glutamine 2 mM (culture medium). The in vitro evaluation of the antileishmanial activity of the tested compound on L. infantum promastigotes forms was assessed according to the Mosmann protocol with slight modifications. […] Appropriate controls treated with DMSO, Miltefosine, Amphotericin B and Fexinidazole sulfone (reference drugs purchased from Sigma-Aldrich, Saint-Louis, MO, USA) were added to each set of experiments. The plates were incubated at 27 °C for 72 h, Then, each plate-well was microscope-analyzed to detect any precipitate formation. Afterward, 20 µL of MTT (3-(4,5-dimethylthiazol-2-yl)-2,5-diphenyltetrazolium bromide) (Sigma-Aldrich, Saint-Louis, MI, USA) solution (5 mg/mL in PBS) were added to each well and incubated at 27 °C for 4 h. The reaction was then stopped by the addition of 100 µL of 10% sodium dodecyl sulfate—50% isopropanol. Plates were shaken vigorously at 400 rpm for 10 min. […] EC50 values represent the mean value calculated from at least three separate experiments.
# [3] = system: HepG2 cell line; assay: In vitro cytotoxicity on the human hepatic HepG2 cell line (MTT, 72 h); details: for Selectivity INDEX (SI = CC50/EC50): HepG2 CC50 / L. infantum promastigote EC50
# Method: (§1) HepG2 cell line (hepatocarcinoma cell line purchased from ATCC, ref HB-8065) was maintained at 37 °C, 5% CO2 with 90% humidity in MEM supplemented with 10% fetal bovine serum, 1% L-glutamine (200 mM) and penicillin (100 U/mL)/streptomycin ([…]) (complete MEM medium). The tested molecules’ cytotoxicity was assessed according to the method of Mosmann with slight modifications. Briefly, 5 × 10^3 cells in 100 μL of complete medium were inoculated into each well of 96-well plates and incubated at 37 °C in a humidified 5% CO2. After 24 h incubation, 100 μL of medium with various product concentrations dissolved in DMSO (final concentration less than 0.5% v/v) were added and the plates were incubated for 72 h at 37 °C. Triplicate assays were performed for each sample. Each plate well was then microscope-examined to detect possible precipitate formation before the medium was aspirated from the wells. Then, 100 μL of MTT (3-(4,5-dimethyl-2-thiazolyl)-2,5-diphenyl-2H-tetrazolium bromide) solution (0.5 mg/mL in medium without FCS) were then added to each well. Cells were incubated for 2 h at 37 °C, following which the MTT solution was removed and DMSO (100 μL) was added to dissolve the resulting blue formazan crystals. Plates were shaken vigorously (700 rpm) for 10 min. The absorbance was measured at 570 nm with 630 nm as reference wavelength using a TECAN Infinite F-200 spectrophotometer (Tecan Trading AG, Männedorf, Switzerland). DMSO was used as blank and doxorubicin (purchased from Sigma Aldrich, Saint Louis, MI, USA) as positive control. Cell viability was calculated as a percentage of control (cells incubated without compound). […] CC50 values represent the mean value calculated from three separate experiments.
# [4] = as above; details: human
# Method: as §1
# [5] = system: wild-type L. donovani (LdBOB) promastigotes; assay: Antileishmanial activity against wild-type L. donovani promastigotes; assay type: cell-based; details: Leishmania donovani, read-out: EC50 Values, WT
# Method: (§2) EC50 values were determined as previously described. Nifurtimox was used as a positive control for activation via NTR1 [38] while delamanid was used as a positive control for activation via NTR2 [39].
# [6] = system: L. donovani promastigotes overexpressing NTR2; assay: microbe, parasite or virus in culture; assay type: cell-based; details: Leishmania donovani, read-out: EC50 Values, NTR2 OE
# Method: as §2
# [7] = system: L. donovani promastigotes overexpressing NTR1; assay: microbe, parasite or virus in culture; assay type: cell-based; details: Leishmania donovani, read-out: EC50 Values, NTR1 OE
# Method: as §2
# [8] = HepG2 cells (hepatocarcinoma cell line, ATCC HB-8065), HepG2 Cytotoxicity CC50, HepG2, 72 h, MTT
Structure (SMILES),"EC50 ([2]; L. infantum promastigotes, MTT) [µM]",melting point [°C],Selectivity INDEX (SI = CC50/EC50) [3],"CC50 at 72 h [4, 8] [µM]",also measured
"C[C@@H]1[C@H](O)[C@@H](C)/C=C/C=C/C=C/C=C/C=C/C=C/C=C/[C@H](O[C@@H]2O[C@H](C)[C@@H](O)[C@H](N)[C@@H]2O)C[C@@H]2O[C@](O)(C[C@@H](O)C[C@@H](O)[C@H](O)CC[C@@H](O)C[C@@H](O)CC(=O)O[C@H]1C)C[C@H](O)[C@H]2C(=O)O [Amphotericin B, reference compound]",0.06 ± 0.02,,,,CC50 at 72 h [1]: 17.6 ± 3 µM
"N#CCN1C(=O)S/C(=C\c2ccc([N+](=O)[O-])cc2)C1=O [Compound 14d, (Z)-2-(5-(4-Nitrobenzylidene)thiazolidine-2,4-dion-3-yl)acetonitrile]",24.8 ± 6.09,193 to 195,4.4,109 ± 11,
"NC(=O)CN1C(=O)S/C(=C\c2cccc([N+](=O)[O-])c2)C1=O [Compound 15c, (Z)-2-(5-(3-Nitrobenzylidene)thiazolidine-2,4-dion-3-yl)acetamide]",13.3 ± 7.75,256 to 258,>4.7,> 62.5,
"O=C(CN1C(=O)S/C(=C\c2ccccc2[N+](=O)[O-])C1=O)c1ccccc1 [Compound 16b, (Z)-5-(2-Nitrobenzylidene)-3-(2-oxo-2-phenylethyl)thiazolidine-2,4-dione]",5.57 ± 1.28,156 to 158,2.0,11 ± 2.28,
"O=C(CN1C(=O)S/C(=C\c2cccc([N+](=O)[O-])c2)C1=O)c1ccccc1 [Compound 16c, (Z)-5-(3-Nitrobenzylidene)-3-(2-oxo-2-phenylethyl)thiazolidine-2,4-dione]",3.22 ± 0.94,160 to 162,>3.9,> 12.5,
"O=C(CN1C(=O)S/C(=C\c2ccccc2[N+](=O)[O-])C1=O)Nc1ccccc1 [Compound 23b, (Z)-2-(5-(2-Nitrobenzylidene)thiazolidine-2,4-dion-3-yl)-N-phenylacetamide]",11.6 ± 3.43,186 to 188,1.9,22.3 ± 0.59,
"Cc1ccc(NC(=O)CN2C(=O)S/C(=C\c3ccccc3[N+](=O)[O-])C2=O)cc1 [Compound 24b, (Z)-N-(4-Methylphenyl)-2-(5-(2-nitrobenzylidene)thiazolidine-2,4-dion-3-yl) acetamide]",24.8 ± 6.68,181 to 183,1.2,30.9 ± 3.97,
"COc1ccc(NC(=O)CN2C(=O)S/C(=C\c3ccccc3[N+](=O)[O-])C2=O)cc1 [Compound 25b, (Z)-2-(5-(2-Nitrobenzylidene)thiazolidine-2,4-dion-3-yl)-N-(4-methoxyphenyl) acetamide]",22.3 ± 4.93,204 to 205,1.1,23.3 ± 2.93,
"O=C(CN1C(=O)S/C(=C\c2ccccc2[N+](=O)[O-])C1=O)Nc1ccc([N+](=O)[O-])cc1 [Compound 26b, (Z)-2-(5-(2-Nitrobenzylidene)thiazolidine-2,4-dion-3-yl)-N-(4-nitroyphenyl) acetamide]",,213 to 215,2.1,,CC50 at 72 h [4]: 30.1 ± 3.94 µM; EC50 [2]: 14.6 ± 2.91 µM
"O=C(CN1C(=O)S/C(=C\c2cccc([N+](=O)[O-])c2)C1=O)Nc1ccc([N+](=O)[O-])cc1 [Compound 26c, (Z)-2-(5-(3-Nitrobenzylidene)thiazolidine-2,4-dion-3-yl)-N-(4-nitroyphenyl) acetamide]",,264 to 266,>3.5,,CC50 at 72 h [4]: > 25 µM; EC50 [2]: 7.2 ± 1.48 µM
"O=C(CN1C(=O)S/C(=C\c2ccc([N+](=O)[O-])cc2)C1=O)Nc1ccc([N+](=O)[O-])cc1 [Compound 26d, (Z)-2-(5-(4-Nitrobenzylidene)thiazolidine-2,4-dion-3-yl)-N-(4-nitroyphenyl) acetamide]",,284 to 285,>1.8,,CC50 at 72 h [4]: > 25 µM; EC50 [2]: 14.1 ± 2.8 µM
"O=C(CN1C(=O)S/C(=C\c2ccccc2[N+](=O)[O-])C1=O)Nc1ccc(Cl)cc1 [Compound 27b, (Z)-N-(4-Chlorophenyl)-2-(5-(2-nitrobenzylidene)thiazolidine-2,4-dion-3-yl) acetamide]",16.3 ± 3.85,188 to 190,2.1,34.6 ± 3.03,
"O=C(CN1C(=O)S/C(=C\c2ccc([N+](=O)[O-])cc2)C1=O)Nc1ccc(Cl)cc1 [Compound 27d, (Z)-N-(4-Chlorophenyl)-2-(5-(4-nitrobenzylidene)thiazolidine-2,4-dion-3-yl) acetamide]",17.3 ± 4.17,252 to 254,>0.7,> 12.5,
"COc1cc(/C=C2\SC(=O)N(CC(=O)Nc3ccc(Cl)cc3)C2=O)cc(OC)c1OC [Compound 27e, (Z)-N-(4-Chlorophenyl)-2-(5-(3,4,5-trimethoxybenzylidene)thiazolidine-2,4-dion-3-yl)acetamide]",5 ± 1.98,218 to 219,3.9,19.4 ± 2.05,
"O=C(CN1C(=O)S/C(=C\c2ccccc2[N+](=O)[O-])C1=O)Nc1ccccc1Cl [Compound 28b, (Z)-N-(2-Chlorophenyl)-2-(5-(2-nitrobenzylidene)thiazolidine-2,4-dion-3-yl) acetamide]",16.1 ± 4.32,174 to 175,1.4,23 ± 3.2,
C[C@]1(COc2ccc(N3CCC(Oc4ccc(OC(F)(F)F)cc4)CC3)cc2)Cn2cc([N+](=O)[O-])nc2O1 [Delamanid],,,,,EC50 [5]: 3 ± 0.1 nM; EC50 [6]: 0.3 ± 0.001 nM; EC50 [7]: 2 ± 0.3 nM
"COc1cccc2c1C(=O)c1c(O)c3c(c(O)c1C2=O)C[C@@](O)(C(=O)CO)C[C@@H]3O[C@H]1C[C@H](N)[C@H](O)[C@H](C)O1 [Doxorubicin, reference compound]",,,,,"CC50 at 72 h [1]: 2.2 ± 0.1 µM; CC50 ([3]; read-out: HepG2 Cytotoxicity CC50, HepG2, 72 h, MTT): 200 ± 20 nM"
"Cn1c([N+](=O)[O-])cnc1COc1ccc(S(C)(=O)=O)cc1 [Fexinidazole sulfone, reference compound]",3.1 ± 0.7,,>64.5,> 200,CC50 at 72 h [1]: > 200 µM
"CCCCCCCCCCCCCCCCOP(=O)([O-])OCC[N+](C)(C)C [Miltefosine, reference compound]",3.3 ± 0.8,,,,CC50 at 72 h [1]: 30 ± 4 µM
CC1CS(=O)(=O)CCN1/N=C/c1ccc([N+](=O)[O-])o1 (stereo not drawn) [Nifurtimox],,,,,EC50 [5]: 3110 ± 223 nM; EC50 [6]: 163 ± 11 nM; EC50 [7]: 144 ± 10 nM
